Like-named read-outs stand apart in the source and are kept apart here.
Test system: PMA-differentiated THP-1 cells
Assay: IL-1β production in PMA-differentiated THP-1 cells stimulated with gramicidin (hTHP-1 assay containing 2% fetal bovine serum; Procedures 1 and 2)
Type: cell-based, human
Conditions: 2% fetal bovine serum
Summary of the method: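 Compound titrations in 0.37% final DMSO were added to THP-1 cells that had been plated after 16-18 h PMA treatment, 50,000 per well in 2% FBS. One hour later the cells received gramicidin (5 μM, 2 h) and were centrifuged. HTRF detected IL-1β in the collected supernatants.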

[1] = Homo sapiens, THP-1, Table B2, class symbols, read-out: hTHP-1 IC50
[2] = Table B1, class symbols, read-out: Average IC50 of compounds in hTHP-1 assay: hTHP-1 IC50
[3] = Table B2, class symbols, read-out: hTHP-1 IC50
[4] = Homo sapiens, THP-1, Table B3, hTHP-1 assay, class symbols, read-out: IC50

CC(C)(O)c1scc(S(N)(=O)=NC(=O)Nc2c3c(nc4c2CCC4)CCC3)c1F (single isomer, unassigned) [Compound 701b, (S) or (R)-4-Fluoro-N′-((1,2,3,5,6,7-hexahydrodicyclopenta [b,e]pyridin-8-yl)carbamoyl)-5-(2-hydroxypropan-2-yl)thiophene-3-sulfonimidamide] was tested, and the IC50 (Homo sapiens, THP-1, Table B2, numeric bounds, read-out: hTHP-1 IC50) was > 30000 nM.

Compound CCn1ccc([S@](N)(=O)=NC(=O)Nc2c3c(nc4c2CCC42CC2)CCC3)n1 [Compound 604b] has an IC50 [1] of 200 to 1000 nM.

With CCc1csc(S(N)(=O)=NC(=O)Nc2c3c(nc4c2CC[C@H]4C)CCC3)c1 (stereo partly drawn) [Compound 721c, 4-Ethyl-N′-(((R)-3-methyl-1,2,3,5,6,7-hexahydrodicyclopenta [b,e]pyridin-8-yl)carbamoyl)thiophene-2-sulfonimidamide] the IC50 [1] was 40 to 200 nM.

For CC1CCc2c1nc1c(c2NC(=O)N=S(N)(=O)c2sc(C(C)(C)O)nc2CO)CCC1 (single isomer, unassigned) [Compound 168a, (S,R/S) or (R,R/S)-4-(hydroxymethyl)-2-(2-hydroxypropan-2-yl)-N′-((3-methyl-1,2,3,5,6,7-hexahydro-dicyclopenta[b,e]pyridin-8-yl)carbamoyl)thiazole-5-sulfonimidamide], the IC50 [2] was 5000 to 30000 nM.

CCn1ccc(S(N)(=O)=NC(=O)Nc2c3c(nc4c2CC[C@H]4C)CCC3)n1 (single isomer, unassigned) [Compound 634b, (R) or (S)-1-Ethyl-N′-(((R)-3-methyl-1,2,3,5,6,7-hexahydrodicyclopenta [b,e]pyridin-8-yl)carbamoyl)-1H-pyrazole-3-sulfonimidamide] gave an IC50 [3] of 40 to 200 nM.

For CC1(C)CCc2c1nc1c(c2NC(=O)N=S(N)(=O)c2sc(C(C)(O)CO)cc2F)CCC1 (single isomer, unassigned) [Compound 699b, (S, R) and (R, R) or (R, S) and (S, S)-5-(1,2-Dihydroxypropan-2-yl)-N′-((3,3-dimethyl-1,2,3,5,6,7-hexahydrodicyclopenta [b,e]pyridin-8-yl)carbamoyl)-3-fluorotliophene-2-sulfoni midamide], the IC50 [3] was 8 to 40 nM.

CCn1cc(F)c(S(N)(=O)=NC(=O)Nc2c(-c3ccccc3)cnc3c2CCC3)n1 (stereo not drawn) [Example 745, 1-Ethyl-4-fluoro-N′-((3-phenyl-6,7-dihydro-5H-cyclopenta[b]pyridin-4-yl)carbamoyl)-1H-pyrazole-3-sulfonimidamide] was tested, and the IC50 (Homo sapiens, THP-1, Table B4, class symbols, read-out: hTHP-1 IC50) was 1000 to 5000 nM.

CC(C)(O)c1sc(S(N)(=O)=NC(=O)Nc2c3c(nc4c2CCC4)CCC3)cc1F (stereo not drawn) [Compound 678, 4-Fluoro-N′-((1,2,3,5,6,7-hexahydrodicyclopenta[b,e]pyridin-8-yl)carbamoyl)-5-(2-hydroxypropan-2-yl)thiophene-2-sulfonimidamide] showed an IC50 [1] of 1000 to 5000 nM.

Work on NS(=O)(=NC(=O)Nc1c2c(nc3c1CCC31CC1)CCC2)c1nn(C(F)F)cc1F (stereo not drawn) [Compound 719] yielded an IC50 [1] of 200 to 1000 nM.

For CCc1c(C(F)(F)F)nc2c(c1NC(=O)N=S(N)(=O)c1cc(C(C)(C)O)cs1)CCC2 (single isomer, unassigned) [Compound 698a, (S) or (R)-N′-((3-ethyl-2-(trifluoromethyl)-6,7-dihydro-5H-cyclopenta[b]pyridin-4-yl)carbamoyl)-4-(2-hydroxypropan-2-yl)thiophene-2-sulfonimidamide], the IC50 [3] was 1000 to 5000 nM.

With CC1(C)CCc2c1nc1c(c2NC(=O)N=S(N)(=O)c2sc(C(C)(O)CO)nc2CO)CCC1 (stereo not drawn) [Example 598, 2-(1,2-Dihydroxypropan-2-yl)-N′-((3,3-dimethyl-1,2,3,5,6,7-hexahydrodicyclopenta[b,e]pyridin-8-yl)carbamoyl)-4-(hydroxymethyl)thiazole-5-sulfonimidamide] the IC50 [4] was 200 to 1000 nM.

Compound CC1CCc2c1nc1c(c2NC(=O)N=S(N)(=O)c2cc(C(C)(C)O)cs2)CCC1C (single isomer, unassigned) [Compound 131g, (R,R,R) or (R,S,S)-N′-((3,5-dimethyl-1,2,3,5,6,7-hexa-hydrodicyclo-penta[b,e]pyridin-8-yl)carbamoyl)-4-(2-hydroxypropan-2-yl)thio-phene-2-sulfonimidamide] has an IC50 [2] of 200 to 1000 nM.

Work on CC(C)(O)c1cc(S(N)(=O)=NC(=O)Nc2c3c(nc4c2CCC4(C)C)CCC3)nn1-c1ccc(F)cc1 (stereo not drawn) [Compound 704, N′-((3,3-dimethyl-1,2,3,5,6,7-hexahydrodicyclopenta[b,e]pyridin-8-yl)carbamoyl)-1-(4-fluorophenyl)-5-(2-hydroxypropan-2-yl)-1H-pyrazole-3-sulfonimidamide] yielded an IC50 [1] of 1000 to 5000 nM.

Compound CCn1cc(F)c(S(N)(=O)=NC(=O)Nc2c3c(nc4c2CCC42CC2)CCC3)n1 (single isomer, unassigned) [Example 671, (R) or (S)-1-ethyl-4-fluoro-N′-((1′,5′,6′,7′-tetrahydro-2′H-spiro[cyclopropane-1,3′-dicyclopenta[b,e]pyridin]-8′-yl)carbamoyl)-1H-pyrazole-3-sulfonimidamide] has an IC50 (Table B3, hTHP-1 assay, class symbols, read-out: IC50) of 8 to 40 nM.

Cc1c(C2(F)CC2)nc2c(c1NC(=O)N=S(N)(=O)c1sc(C(C)(C)O)cc1F)CCC2 (stereo not drawn) [Example 612, 3-Fluoro-N′-((2-(1-fluorocyclopropyl)-3-methyl-6,7-dihydro-5H-cyclopenta[b]pyridin-4-yl)carbamoyl)-5-(2-hydroxypropan-2-yl)thiophene-2-sulfonimidamide] gave an IC50 [4] of 1000 to 5000 nM.

For CC(C)(O)c1ncc(S(N)(=O)=NC(=O)Nc2c3c(nc4c2CCC4F)CCC3)s1 (single isomer, unassigned) [Compound 183d, (S,R) or (S,S)-N′-((3-fluoro-1,2,3,5,6,7-hexahydrodicyclo-penta[b,e]pyridin-8-yl)carbamoyl)-2-(2-hydroxypropan-2-yl)thiazole-5-sulfonimidamide], the IC50 (Table B1, numeric bounds, read-out: Average IC50 of compounds in hTHP-1 assay: hTHP-1 IC50) was > 30000 nM.

Work on CC1(C)CCc2c1nc1c(c2NC(=O)N=S(N)(=O)c2sc([C@@](C)(O)CO)nc2CO)CCC1 (stereo partly drawn) [Example 599, 2-((S)-1,2-dihydroxypropan-2-yl)-N′-((3,3-dimethyl-1,2,3,5,6,7-hexahydrodicyclopenta[b,e]pyridin-8-yl)carbamoyl)-4-(hydroxymethyl)thiazole-5-sulfonimidamide] yielded an IC50 [4] of 1000 to 5000 nM.

In the case of C[C@H]1CCc2c1nc1c(c2NC(=O)N=[S@@](N)(=O)c2cnc(C(C)(C)O)s2)CCC1 [Compound 162ba, (R,S)-2-(2-hydroxypropan-2-yl)-N′-((3-methyl-1,2,3,5,6,7-hexahydrodicyclo-penta[b,e]pyridin-8-yl)carbamoyl)thiazole-5-sulfonimidamide], the IC50 [2] is reported as 200 to 1000 nM.

CC(C)c1nc2c(cc1NC(=O)N=[S@](N)(=O)c1cnc(C(C)(C)O)s1)CCC2 [Compound 601a] showed an IC50 [1] of 200 to 1000 nM.

For CC1CCc2c1nc1c(c2NC(=O)N=S(N)(=O)c2ncc(C(C)(C)O)s2)CCC1 (stereo not drawn) [Compound 140, 5-(2-hydroxypropan-2-yl)-N′-((3-methyl-1,2,3,5,6,7-hexahydrodicyclopenta[b,e]pyridin-8-yl)carbamoyl)thiazole-2-sulfonimidamide], the IC50 [2] was 40 to 200 nM.

NS(=O)(=NC(=O)Nc1c2c(nc(C(F)(F)F)c1-c1ccccc1)CCC2)c1nn(C(F)F)cc1F (single isomer, unassigned) [Example 766, (S) or (R)-1-(difluoromethyl)-4-fluoro-N′-((3-phenyl-2-(trifluoromethyl)-6,7-dihydro-5H-cyclopenta[b]pyridin-4-yl)carbamoyl)-1H-pyrazole-3-sulfonimidamide] showed an IC50 (Table B4, class symbols, read-out: hTHP-1 IC50) of 1000 to 5000 nM.

Source: patent US20230031406A1, “COMPOUNDS AND COMPOSITIONS FOR TREATING CONDITIONS ASSOCIATED WITH NLRP ACTIVITY” (Novartis AG, priority 2018, published 2023)
